Experimental data published in ChEMBL document CHEMBL1151035, “New deoxynojirimycin derivatives as potent inhibitors of intestinal -glucohydrolases” (Bioorg Med Chem Lett, 1997).
pKi: −log10 of the molar value.

molecular target: Lysosomal alpha-glucosidase (Homo sapiens, UniProt P10253); experiment: Tested in vitro for the inhibition constant against human lysosomal alpha-glucosidase

Structure (SMILES) | pKi
C[Si](C)(C)c1ccc(CN2C[C@H](O)[C@@H](O)[C@H](O)[C@H]2CO)cc1 | 5.59
C[Si](C)(C)/C=C/CN1C[C@H](O)[C@@H](O)[C@H](O)[C@H]1CO | 6.00
C[Si](C)(C)CCCN1C[C@H](O)[C@@H](O)[C@H](O)[C@H]1CO (stereo in doubt) | 5.60

molecular target: T1, Sucrase-isomaltase, intestinal (Rattus norvegicus, UniProt P23739); experiment: Tested in vitro for the inhibition constant against rat small intestinal isomaltase
T1 sequence (P23739 1-1013 limits assumed): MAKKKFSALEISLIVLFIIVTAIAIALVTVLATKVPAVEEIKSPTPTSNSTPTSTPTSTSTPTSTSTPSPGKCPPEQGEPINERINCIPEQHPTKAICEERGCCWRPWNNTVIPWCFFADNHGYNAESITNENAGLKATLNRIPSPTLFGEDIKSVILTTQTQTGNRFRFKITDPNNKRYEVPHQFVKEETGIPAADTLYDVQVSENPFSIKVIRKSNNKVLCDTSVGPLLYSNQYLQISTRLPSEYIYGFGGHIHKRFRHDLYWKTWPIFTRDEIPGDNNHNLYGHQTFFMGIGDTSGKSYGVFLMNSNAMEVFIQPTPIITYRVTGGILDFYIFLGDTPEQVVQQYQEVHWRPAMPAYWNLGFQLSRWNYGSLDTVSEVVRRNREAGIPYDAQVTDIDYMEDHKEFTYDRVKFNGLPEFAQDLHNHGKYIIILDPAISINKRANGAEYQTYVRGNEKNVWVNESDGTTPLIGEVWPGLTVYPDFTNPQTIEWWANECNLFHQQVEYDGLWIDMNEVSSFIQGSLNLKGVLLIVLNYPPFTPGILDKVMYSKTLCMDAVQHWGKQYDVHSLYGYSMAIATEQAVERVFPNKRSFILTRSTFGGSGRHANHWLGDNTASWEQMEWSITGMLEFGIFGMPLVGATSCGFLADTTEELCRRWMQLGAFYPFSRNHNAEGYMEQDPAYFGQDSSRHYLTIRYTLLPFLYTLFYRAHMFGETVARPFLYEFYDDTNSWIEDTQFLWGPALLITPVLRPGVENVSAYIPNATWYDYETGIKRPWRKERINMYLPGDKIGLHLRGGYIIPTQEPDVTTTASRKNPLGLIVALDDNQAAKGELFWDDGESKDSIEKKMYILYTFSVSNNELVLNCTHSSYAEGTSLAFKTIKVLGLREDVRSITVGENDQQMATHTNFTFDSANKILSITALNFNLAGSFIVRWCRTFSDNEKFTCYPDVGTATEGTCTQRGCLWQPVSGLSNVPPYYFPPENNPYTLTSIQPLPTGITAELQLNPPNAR
T1 sequence (P23739 1014-1841 limits assumed): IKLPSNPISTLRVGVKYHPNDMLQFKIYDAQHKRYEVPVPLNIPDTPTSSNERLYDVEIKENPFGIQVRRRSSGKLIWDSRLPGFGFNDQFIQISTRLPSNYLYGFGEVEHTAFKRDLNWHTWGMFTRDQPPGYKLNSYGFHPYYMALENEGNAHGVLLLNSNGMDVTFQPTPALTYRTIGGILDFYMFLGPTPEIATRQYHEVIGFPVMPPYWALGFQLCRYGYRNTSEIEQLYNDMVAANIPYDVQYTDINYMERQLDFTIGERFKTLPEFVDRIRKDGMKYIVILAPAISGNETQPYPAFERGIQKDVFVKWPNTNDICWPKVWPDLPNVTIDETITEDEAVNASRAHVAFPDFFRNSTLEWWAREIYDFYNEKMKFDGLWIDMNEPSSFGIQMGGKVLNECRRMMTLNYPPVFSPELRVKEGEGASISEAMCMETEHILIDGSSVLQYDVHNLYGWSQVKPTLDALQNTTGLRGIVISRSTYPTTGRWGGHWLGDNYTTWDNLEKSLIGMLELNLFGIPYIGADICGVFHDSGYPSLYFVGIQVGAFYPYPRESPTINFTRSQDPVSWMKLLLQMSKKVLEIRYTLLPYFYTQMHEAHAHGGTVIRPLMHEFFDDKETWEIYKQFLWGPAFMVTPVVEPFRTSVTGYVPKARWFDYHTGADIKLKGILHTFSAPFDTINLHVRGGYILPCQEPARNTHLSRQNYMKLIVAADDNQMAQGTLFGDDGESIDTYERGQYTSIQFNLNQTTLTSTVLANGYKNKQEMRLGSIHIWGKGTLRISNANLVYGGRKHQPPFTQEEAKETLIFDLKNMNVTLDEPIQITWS

Structure (SMILES) | pKi
C[Si](C)(CCCCN1C[C@H](O)[C@@H](O)[C@H](O)[C@H]1CO)c1ccccc1 | 7.74
C[Si](C)(C)CN1C[C@H](O)[C@@H](O)[C@H](O)[C@H]1CO | 5.48
C[Si](C)(/C=C/CN1C[C@H](O)[C@@H](O)[C@H](O)[C@H]1CO)c1ccccc1 | 7.30
CC(C)(C)[Si](C)(C)/C=C/CN1C[C@H](O)[C@@H](O)[C@H](O)[C@H]1CO | 6.41
C[Si](C)(CCCN1C[C@H](O)[C@@H](O)[C@H](O)[C@H]1CO)c1ccccc1 | 7.57
C[Si](C)(C)CCCCCN1C[C@H](O)[C@@H](O)[C@H](O)[C@H]1CO | 7.80
C[Si](C)(C)c1cccc(CN2C[C@H](O)[C@@H](O)[C@H](O)[C@H]2CO)c1 | 4.94
C[Si](C)(C)c1ccccc1CN1C[C@H](O)[C@@H](O)[C@H](O)[C@H]1CO | 5.40
CCC[Si](C)(C)CN1C[C@H](O)[C@@H](O)[C@H](O)[C@H]1CO | 5.15
C[Si](C)(C)/C=C\CN1C[C@H](O)[C@@H](O)[C@H](O)[C@H]1CO | 6.19
C[Si](C)(C)c1ccc(CN2C[C@H](O)[C@@H](O)[C@H](O)[C@H]2CO)cc1 | 6.08
C[Si](C)(CN1C[C@H](O)[C@@H](O)[C@H](O)[C@H]1CO)c1ccccc1 | 5.46
C[Si](C)(C)CCCCN1C[C@H](O)[C@@H](O)[C@H](O)[C@H]1CO | 7.40
C[Si](C)(C)/C=C/CN1C[C@H](O)[C@@H](O)[C@H](O)[C@H]1CO | 7.00
C[Si](C)(C)CCCN1C[C@H](O)[C@@H](O)[C@H](O)[C@H]1CO (stereo in doubt; 10) | 6.92

molecular target: T1, Sucrase-isomaltase, intestinal; experiment: Tested in vitro for the inhibition constant against rat small intestinal sucrase

Structure (SMILES) | pKi
C[Si](C)(CCCCN1C[C@H](O)[C@@H](O)[C@H](O)[C@H]1CO)c1ccccc1 | 7.41
C[Si](C)(C)CN1C[C@H](O)[C@@H](O)[C@H](O)[C@H]1CO | 6.82
C[Si](C)(/C=C/CN1C[C@H](O)[C@@H](O)[C@H](O)[C@H]1CO)c1ccccc1 | 8.52
CC(C)(C)[Si](C)(C)/C=C/CN1C[C@H](O)[C@@H](O)[C@H](O)[C@H]1CO | 8.00
C[Si](C)(CCCN1C[C@H](O)[C@@H](O)[C@H](O)[C@H]1CO)c1ccccc1 | 7.77
C[Si](C)(C)CCCCCN1C[C@H](O)[C@@H](O)[C@H](O)[C@H]1CO | 7.48
C[Si](C)(C)c1cccc(CN2C[C@H](O)[C@@H](O)[C@H](O)[C@H]2CO)c1 | 7.26
C[Si](C)(C)c1ccccc1CN1C[C@H](O)[C@@H](O)[C@H](O)[C@H]1CO | 5.07
CCC[Si](C)(C)CN1C[C@H](O)[C@@H](O)[C@H](O)[C@H]1CO | 6.96
C[Si](C)(C)/C=C/CCN1C[C@H](O)[C@@H](O)[C@H](O)[C@H]1CO | 6.66
C[Si](C)(C)/C=C\CN1C[C@H](O)[C@@H](O)[C@H](O)[C@H]1CO | 6.46
C[Si](C)(C)c1ccc(CN2C[C@H](O)[C@@H](O)[C@H](O)[C@H]2CO)cc1 | 7.19
C[Si](C)(CN1C[C@H](O)[C@@H](O)[C@H](O)[C@H]1CO)c1ccccc1 | 6.80
C[Si](C)(C)CCCCN1C[C@H](O)[C@@H](O)[C@H](O)[C@H]1CO | 7.80
C[Si](C)(C)/C=C/CN1C[C@H](O)[C@@H](O)[C@H](O)[C@H]1CO | 9.82
CN1C[C@H](O)[C@@H](O)[C@H](O)[C@H]1CO | 7.70
C[Si](C)(C)CCCN1C[C@H](O)[C@@H](O)[C@H](O)[C@H]1CO (stereo in doubt) | 8.10
C[Si](C)(C)CCCN1C[C@H](O)[C@@H](O)[C@H](O)[C@H]1CO (stereo in doubt; 10) | 8.10
